Measured values from patent US5932575A, “Cardiac diseases improving agents” (Kureha Chemical Industry Co., Ltd., priority 1997, dated 1999).
Where “and” joins values, the source holds several entries; their conditions need not be identical. Identical values can stand only once.

Key:
[1] = test system: rats with renal diseases; settings: J. Pharmacol. Exp. Ther., 267: 657-663, 1993; cited from earlier work
[2] = molecular target: T1, type 2 (AT2) receptor (Bos taurus, UniProt G5E6F7); assay: Affinity to angiotensin II type 2 receptor (binding assay); parameters: species or system bovine; settings: 37° C., one hour
T1 construct: Receptor: Derived from bovine cerebellum; from tissue; host or cells: bovine cerebellum
T1 sequence (G5E6F7 1-362): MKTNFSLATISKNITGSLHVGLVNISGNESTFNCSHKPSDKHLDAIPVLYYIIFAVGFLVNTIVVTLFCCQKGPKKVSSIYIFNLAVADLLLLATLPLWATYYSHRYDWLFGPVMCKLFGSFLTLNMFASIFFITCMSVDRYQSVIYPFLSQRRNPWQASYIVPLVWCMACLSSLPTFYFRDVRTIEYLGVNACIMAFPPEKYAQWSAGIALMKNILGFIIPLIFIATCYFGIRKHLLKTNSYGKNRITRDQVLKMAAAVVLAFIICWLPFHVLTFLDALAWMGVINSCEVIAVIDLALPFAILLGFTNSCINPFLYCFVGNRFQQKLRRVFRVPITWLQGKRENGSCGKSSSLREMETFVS
Experimental: Practically, determination of total binding of each compound was carried out as follows. A mixture of 0.025 ml of a predetermined concentration of test compound prepared by dissolving in DMSO, dilution with a buffer attached to the drug discovery system to 2-fold solution, 0.025 ml of a tracer and 0.2 ml of a receptor to make total volume of 0.25 ml was incubated at room temperature for three hours for type 1 angiotensin II (AT1) receptor or at 37° C. for one hour for type 2 (AT2) receptor. The reaction mixture was filtered under suction with CF/C filter paper for AT1 and CF/B filter paper for AT2. The used filter paper having the combination of the tracer and the receptor was determined with a γ-well counter (ARC-500, Aloka). Non-specific binding was determined with a similar manner by adding a large excess amount of displacer. The specific binding of test compound at a predetermined concentration was obtained by subtracting non-specific binding from respective total binding. In AT1, and AT2, a predetermined concentrations of test compound and a control compound were used to give the inhibitory rate, IC50 value of 50% inhibition, or binding inhibitory % at 100 μM, for binding of a radioactive ligand (tracer) and the receptor.
Receptor: Derived from bovine cerebellum
Tracer: ^125 ITyr^4angiotensin II
Control compound: Angiotensin II (human)
(Displacer): Angiotensin II (human)

[3] = test system: rats with renal diseases; assay: Hypotensive action in rats with experimental renal disease (tail cuff); format: in vivo, rats (female Sprague-Dawley)
Experimental: The compounds of the present invention and a comparative compound, Dup 753, were orally administered by gavage to rats with renal diseases and hypotensive action was determined. Rats with experimental renal disease were prepared with conventional method by ligating branch of renal artery. That is, female Sprague-Dawley rats were anesthetized, left renal hilus was exposed and three of four second branches of renal artery were ligated remaining one branch. One week later, further right renal hilus including artery, vein and ureter was ligated to reduce renal function up to about 1/8 to those of normal animals. Rats were divided to make eight animals in one group, and 20 mg/kg of one test compound and water as a control were administered to each group. After two days, systolic blood pressure was determined with a blood pressure determination apparatus using tail cuff method (UR5000, Ueda Manufacturing Co., Ltd.).

[4] = test system: angiotensin II receptor; settings: cited from earlier work
[5] = test system: angiotensin converting enzyme (ACE); settings: cited from earlier work
[6] = test system: ICR mice; assay: Acute toxicity (oral, single dose); format: in vivo; settings: 500 mg/kg oral once, 0.5% methylcellulose, after six days
Experimental: Female 5-week-old ICR mice were divided to groups each having five animals and acclimated for a week. Compound Nos. 1-3, 7, 8, 11 and 13 each was dissolved or dispersed in 0.5% methylcelulose aqueous solution, respectively, and orally administered once at a dose of 500 mg/kg, then the number of dead animals was counted after six days.

[7] = test system: SHR rats, 3/4NPX cardiac hypertrophy model; assay: Inhibitory action of myocardial disturbance, Test 1 (3/4NPX cardiac hypertrophy model); format: in vivo
Experimental: SHR rats were divided into control group and test group each having three animals and both groups were treated with 3/4NPX, an experimental cardiac hypertrophy model prepared by 3/4 partial nephrectomy, after eight weeks. […] After the oral administration,kidneys and heart were excised and their weight was determined.

[8] = test system: SHR rats, 3/4 NPX cardiac hypertrophy model; assay: Inhibitory action of myocardial disturbance, Test 2 (3/4 NPX cardiac hypertrophy model); format: in vivo
Experimental: Similarly, 3/4 NPX (cardiac hypertrophy model caused by 3/4 partial nephrectomy) was carried out at four weeks point in a control group and test group of SHR rats each having two and three animals. […] After 11 weeks, kidneys and heart were excised and their weight was determined.

[9] = J. Clin. Pharmacol., 30:155-158, 1990
[10] = test group average, 20 mg/kg in drinking water four weeks, after 16 weeks
[11] = test group individual animals 1-3 in order, 20 mg/kg, after 16 weeks, 20 mg/kg
[12] = test group average, 20 mg/kg in drinking water, after 9 weeks
[13] = test group average, 20 mg/kg in drinking water, after 11 weeks
[14] = test group individual animals 1-3 in order, 20 mg/kg, after 9 weeks, 20 mg/kg
[15] = test group individual animals 1-3 in order, 20 mg/kg, after 11 weeks, 20 mg/kg

In the case of `CCCN(Cc1ccc(-c2ccccc2-c2nnn[nH]2)cc1)c1ncccc1C(=O)O` [A-81988, 2-[N-propyl-N-[[2'-(1H-tetrazol-5-yl)biphenyl-4-yl]methyl]amino]-pyridine-3-carboxylic acid], the “hypotension (in words)” value [1] is listed as “accompanied with hypotension” and the “proteinuria (in words)” value [1] is listed as “improvement in proteinuria”.

For `CCCCc1nc(Cl)c(CO)n1Cc1ccc(-c2ccccc2-c2nnn[nH]2)cc1` [DuP753, 2-butyl-4-chloro-5-(hydroxymethyl)-1-[[2'-(1H-tetrazol-5-yl)biphenyl-4-yl]methyl]imidazole], the inhibition at 100 µM [2] was 0%, the “Blood pressure (average systolic)” value ([3]; 20 mg/kg oral gavage, after two days, control (water) 210) was 130 mmHg and the “effect on blood pressure (in words)” value ([3]; 20 mg/kg oral, compared with control group) was “marked hypotension”. For the same compound, the “antagonistic action to angiotensin II receptor (in words)” value [4] was “potent antagonistic action to angiotensin II receptor”.

In the case of `C[C@H](CS)C(=O)N1CCC[C@H]1C(=O)O` [Captopril], the “blood pressure (in words)” value [5, 9] is given as “lower blood pressure” and the “adverse reactions (in words)” value [5] is given as “dry cough or adverse reaction of acute renal failure”.

For `CCCCC(=O)N(Cc1ccc(C(=O)O)cc1)c1cc(C(=O)N2CCOCC2)ccc1C` [Compound No. 8, 4-Methyl-3-N-[[4-(carboxyphenyl)methyl]valeramido]benzoic acid morpholide], the “number of dead animals” value [6] was “No dead animals was found”.

In the case of `CCCCC(=O)N(Cc1ccc(C(=O)O)cc1)c1cc(C(=O)N2CCOCC2)ccc1N(C)C` [Compound No. 7, 3-N-[[(4-Carboxyphenyl)methy)valeramido]-4-dimethylaminobenzoic acid morpholide], the “number of dead animals” value [6] was “No dead animals was found”.

For `CCOC(=O)[C@H](CCc1ccccc1)N[C@@H](C)C(=O)N1CCC[C@H]1C(=O)O` [Enalapril], the “blood pressure (in words)” value [5, 9] is listed as “lower blood pressure”, the “renal dysfunction (in words)” value [5, 9] is listed as “improve the progress of renal dysfunction” and the “adverse reactions (in words)” value [5] is listed as “dry cough or adverse reaction of acute renal failure”.

In the case of `CCCCC(=O)N(Cc1ccc(-c2ccccc2-c2nn[nH]n2)cc1)c1cc(C(=O)N2CCOCC2)ccc1N(C)C` [Compound No. 11], the “number of dead animals” value [6] was “No dead animals was found”.

In the case of `CCCCC(=O)N(Cc1ccc(C(=O)OCCN(C)C)cc1)c1cc(C(=O)N2CCOCC2)ccc1N(C)C` [Compound No. 1, 4-dimethylamino-3-N-[[[4-(2'-dimethylaminoethoxycarbonyl)phenyl]-methyl]valeramido]benzoic acid morpholide], the “cardiac disturbance (in words)” value ([7]; Test 1, 20 mg/kg) was “inhibited cardiac disturbance”, the “heart weight (in words)” value ([7]; Test 1, 20 mg/kg) was “decrease of heart weight due to cardiac hypertrophy” and the “hypotension or kidney disturbance (in words)” value ([7]; Test 1, 20 mg/kg) was “without inducing hypotension or kidney disturbance”. The “kidney weight (in words)” value ([7]; Test 1, 20 mg/kg) was “decreased inhibition of kidney weight increase”, the “BP: blood pressure, average” value [7, 10] was 232 mmHg and the “BUN: blood urea nitrogen, average” value [7, 10] was 58 mg/dL. For the same compound, the “BW: body weight, average” value [7, 10] was 385 g, the “CCr: creatinine clearance, average” value [7, 10] was 0.76 mL/min and the “Cr: blood creatinine, average” value [7, 10] was 1.0 mg/dL. For the same compound, the “HW: heart weight, average” value [7, 10] was 1.493 g, the “KW: kidney weight, average” value [7, 10] was 1.451 g and the “RW: relative weight (heart), average” value [7, 10] was 0.388%. For the same compound, the “RW: relative weight (kidney), average” value [7, 10] was 0.376%, the “U-Pro.: urinary protein, average” value [7, 10] was 114.6 mg/day and the “BP: blood pressure, individual animal” value [7, 11] was 247 mmHg and 221 mmHg and 229 mmHg. For the same compound, the “BUN: blood urea nitrogen, individual animal” value (“BUN … individual animal” below) [7, 11] was 55 mg/dL and 50 mg/dL and 70 mg/dL, the “BW: body weight, individual animal” value [7, 11] was 415 g and 346 g and 394 g and the “CCr: creatinine clearance, individual animal” value (shortened to “CCr … individual animal”) [7, 11] was 0.88 mL/min and 0.74 mL/min and 0.66 mL/min. The “Cr: blood creatinine, individual animal” value [7, 11] was 1.0 mg/dL and 0.9 mg/dL and 1.2 mg/dL, the “HW: heart weight, individual animal” value [7, 11] was 1.546 g and 1.326 g and 1.606 g and the “KW: kidney weight, individual animal” value [7, 11] was 1.515 g and 1.269 g and 1.568 g. For the same compound, the “RW: relative weight (heart), individual animal” value [7, 11] was 0.373% and 0.383% and 0.408%, the “RW: relative weight (kidney), individual animal” value [7, 11] was 0.365% and 0.366% and 0.398% and the “U-Pro.: urinary protein, individual animal” value [7, 11] was 119.8 mg/day and 50.5 mg/day and 174.6 mg/day. For the same compound, the “heart weight (in words)” value ([8]; Test 2, 20 mg/kg) was “declined heart weight”, the “myocardial disturbance (in words)” value ([8]; Test 2, 20 mg/kg) was “inhibition of myocardial disturbance” and the “urinary protein (in words)” value ([8]; Test 2, 20 mg/kg) was “significant decrease of urinary protein”. The “BP: blood pressure, average” value [8, 12] was 214 mmHg, the “BUN: blood urea nitrogen, average” value [8, 12] was 44 mg/dL and the “BW: body weight, average” value [8, 12] was 258 g. The “CCr: creatinine clearance, average” value [8, 12] was 0.64 mL/min, the “Cr: blood creatinine, average” value [8, 12] was 0.7 mg/dL and the “U-Pro.: urinary protein, average” value [8, 12] was 43.3 mg/day. For the same compound, the “BP: blood pressure, average” value [8, 13] was 237 mmHg, the “BUN: blood urea nitrogen, average” value [8, 13] was 56 mg/dL and the “BW: body weight, average” value [8, 13] was 286 g. For the same compound, the “CCr: creatinine clearance, average” value [8, 13] was 0.67 mL/min, the “Cr: blood creatinine, average” value [8, 13] was 0.8 mg/dL and the “HW: heart weight, average” value [8, 13] was 1.078 g. The “KW: kidney weight, average” value [8, 13] was 1.350 g, the “RW: relative weight (heart), average” value [8, 13] was 0.378% and the “RW: relative weight (kidney), average” value [8, 13] was 0.473%. The “U-Pro.: urinary protein, average” value [8, 13] was 65.4 mg/day, the “BP: blood pressure, individual animal” value [8, 14] was 205 mmHg and 219 mmHg and 214 mmHg and the “BUN … individual animal” value [8, 14] was 41 mg/dL and 45 mg/dL and 47 mg/dL. The “BW: body weight, individual animal” value [8, 14] was 263 g and 254 g and 256 g, the “CCr … individual animal” value [8, 14] was 0.83 mL/min and 0.51 mL/min and 0.58 mL/min and the “Cr: blood creatinine, individual animal” value [8, 14] was 0.6 mg/dL and 0.8 mg/dL. The “U-Pro.: urinary protein, individual animal” value [8, 14] was 38.7 mg/day and 41.5 mg/day and 49.8 mg/day, the “BP: blood pressure, individual animal” value [8, 15] was 217 mmHg and 259 mmHg and 234 mmHg and the “BUN … individual animal” value [8, 15] was 44 mg/dL and 50 mg/dL and 58 mg/dL. For the same compound, the “BW: body weight, individual animal” value [8, 15] was 299 g and 271 g and 287 g, the “CCr … individual animal” value [8, 15] was 0.79 mL/min and 0.55 mL/min and 0.67 mL/min and the “Cr: blood creatinine, individual animal” value [8, 15] was 0.7 mg/dL and 0.8 mg/dL and 1.0 mg/dL. For the same compound, the “HW: heart weight, individual animal” value [8, 15] was 1.113 g and 1.018 g and 1.106 g, the “KW: kidney weight, individual animal” value [8, 15] was 1.364 g and 1.319 g and 1.368 g and the “RW: relative weight (heart), individual animal” value [8, 15] was 0.372% and 0.376% and 0.385%. For the same compound, the “RW: relative weight (kidney), individual animal” value [8, 15] was 0.456% and 0.487% and 0.477% and the “U-Pro.: urinary protein, individual animal” value [8, 15] was 46.9 mg/day and 40.5 mg/day and 108.7 mg/day.

With `CCCCC(=O)N(Cc1ccc(-c2nn[nH]n2)cc1)c1cc(C(=O)N2CCOCC2)ccc1N(C)C` [Compound No. 13, 4-Dimethylamino-3-N-[[4-(1H-tetrazol-5-yl)phenylmethyl]valeramido]benzoic acid morpholide] the “number of dead animals” value [6] was “No dead animals was found”.
